One molecule from PubChem BioAssay (NCI) can be followed below.

Among the test systems are BT-549 breast; DLD-1 colon; DMS 273 small cell lung; HL-60(TB) leukemia; HOP-18 NSCLC; LXFL 529 NSCLC; MCF7 breast; MDA-MB-231 breast; MDA-N; MOLT-4 leukemia; OVCAR-3 ovarian; SNB-78 CNS; SW-620 colon.
Holding throughout (experiment): NCI-60 cell line screen, 48 h

“And” between values parts separate entries of the source, which are not always exact repeats. Equal values may be shown once.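 Following 48 hours of exposure in 96-well plates, responses at five concentrations were used to interpolate endpoints linearly. GI50 marks 50% less growth. TGI: total growth inhibition.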

With `O=C1/C(=C/c2ccc(Cl)c(Cl)c2)CN(C(=O)CCN2CCOCC2)C/C1=C\c1ccc(Cl)c(Cl)c1`, the TGI in the assay on BT-549 breast is 48.7 nM; with DLD-1 colon, 409 nM and 785 nM; in the assay with DMS 273 small cell lung, 2370 nM and 608 nM; in the assay on HL-60(TB) leukemia it was 1100 nM and 632 nM; with HOP-18 NSCLC, 5960 nM and 5490 nM; with LXFL 529 NSCLC it was 2990 nM and 1630 nM. The TGI in the assay with MCF7 breast was 159 nM; with MDA-MB-231 breast it was 5.91 nM; in the assay on MDA-N, 44.1 nM; in the assay on SNB-78 CNS, 9930 nM and 6300 nM; in the assay on SW-620 colon, 3320 nM and 563 nM and 746 nM. Besides, the GI50 in the assay with DLD-1 colon is 245 nM; with DMS 273 small cell lung, 230 nM; in the assay with HL-60(TB) leukemia, 362 nM and 277 nM; in the assay on HOP-18 NSCLC it was 2110 nM; with LXFL 529 NSCLC, 499 nM; with MOLT-4 leukemia, 196 nM. The GI50 in the assay on OVCAR-3 ovarian is 1080 nM; with SNB-78 CNS, 2220 nM; in the assay on SW-620 colon, 1390 nM and 229 nM and 249 nM.
